The values that follow come from US8013153B2, “Substituted pyrimidine kinase inhibitors” (Janssen Pharmaceutica, N.V., priority 2006, dated 2011).

The IC50 is the concentration needed to halve the response being measured.

Each structure is given as a SMILES string. Where two headings read alike, the source gives them in different places. Some results are limits rather than exact numbers.

Test [1] relates to HCT-116 colon carcinoma. As to the kind of experiment: Inhibition of in vitro cell proliferation (HCT116).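 Also: cells exposed to compound for 24 h, then 14C-thymidine added for a further 24 h and its uptake into DNA counted by scintillation, DMSO-only wells as control.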 The format is cell-based, human. Particulars: Homo sapiens, HCT-116, 14C-thymidine incorporation.
In test [2] the test system is HeLa cervical adenocarcinoma. Nature of the test: Inhibition of in vitro cell proliferation (HeLa).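 Also: cells exposed to compound for 24 h, then labelled 24 h with methyl 14C-thymidine, with uptake into DNA counted by scintillation against DMSO-only control wells.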 The format is cell-based, human. To be noted: Homo sapiens, 14C-thymidine incorporation.
The test system of test [3] is A375 malignant melanoma. Nature of the test: Inhibition of in vitro cell proliferation (A375).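 Also: cells plated for 24 h, given compound for 24 h, then labelled with 14C-thymidine for another 24 h, with DMSO-only wells as control and counts read by scintillation.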 The format is cell-based, human. To be noted: Homo sapiens, A-375, 14C-thymidine incorporation. In general terms: Uptake of a labelled nucleoside into DNA is a usual measure of proliferation.
The target of test [4] is T1, HER2 cytoplasmic domain (Homo sapiens, UniProt P04626).
T1 construct: polyhistidine (N)
Nature of the test: HER2 Kinase Screening Assay. Particulars: > means no observed 50% inhibition at the indicated test concentration; ~ means approximately 50% inhibition at that concentration. The format is biochemical. The method, then: (§1) A kinase reaction mixture was prepared containing 50 mM Tris-HCl pH=8, 10 mM MgCl2, 0.1 mM Na3PO4, 1 mM DTT, 10 μM ATP, 0.025 μM biotinylated histone-H1 peptide substrate and 0.2 μCuries per well ^33P-γ-ATP (2000-3000 Ci/mmol). 70 μL of the kinase reaction mixture was dispensed into the well of a streptavidin coated FlashPlate™ (Cat. # SMP103, NEN, Boston, Mass.). Then 1 μL of test compound stock in 100% DMSO was added to the wells resulting in a final concentration of 1% DMSO in the reaction with a 100 μL final reaction volume.
(§2) The CDK1:Cyclin-B protein was diluted in 50 mM Tris-HCl pH=8.0, 0.1% BSA at a concentration of 1 ng per μL and 30 μL (30 ng enzyme per test well) was added to each well to initiate the reaction. The reaction was incubated for one hour at 30° C. At the end of the 1 hour incubation, the reaction was terminated by aspirating the mixture from the plate and washing the wells twice with PBS containing 100 mM EDTA. The histone-H1 biotinylated peptide substrate became immobilized on the Flashplate™ and the incorporation of ^33P-γ-ATP was measured by reading the plate on a scintillation counter. Inhibition of the enzymatic activity of CDK1 was measured by observing a reduced amount of ^33P-γ-ATP incorporated into the immobilized peptide.
The HER2 kinase assay was carried out using the CDK kinase assay procedure except that the enzyme was replaced with a HER2 construct containing a polyhistidine tag at the N-terminus followed by 24 additional amino acids and the HER2 cytoplasmic domain beginning at amino acid 676 (Accession #M11730) to the end.

Test [5] has as its target T2, CDK1:Cyclin-B (Homo sapiens, UniProt P06493).
T2 construct: purchased New England Biolabs, Beverly, Mass; 6020; host or cells: insect cells
As to the kind of experiment: CDK1 Screening Assay. The format is biochemical. How it is done:
as §1, §2
The CDK1 used was isolated from insect cells expressing both the human CDK1 catalytic subunit and its positive regulatory subunit cyclin B (New England Biolabs, Beverly, Mass., Cat. #6020).

In test [6] the target is T3, murine Aurora-A (Mus musculus, UniProt P97477).
T3 construct: replaced with the full length protein encoding the murine Aurora-A; made in house; host or cells: sf9 insect cells
T3 sequence (P97477 1-395): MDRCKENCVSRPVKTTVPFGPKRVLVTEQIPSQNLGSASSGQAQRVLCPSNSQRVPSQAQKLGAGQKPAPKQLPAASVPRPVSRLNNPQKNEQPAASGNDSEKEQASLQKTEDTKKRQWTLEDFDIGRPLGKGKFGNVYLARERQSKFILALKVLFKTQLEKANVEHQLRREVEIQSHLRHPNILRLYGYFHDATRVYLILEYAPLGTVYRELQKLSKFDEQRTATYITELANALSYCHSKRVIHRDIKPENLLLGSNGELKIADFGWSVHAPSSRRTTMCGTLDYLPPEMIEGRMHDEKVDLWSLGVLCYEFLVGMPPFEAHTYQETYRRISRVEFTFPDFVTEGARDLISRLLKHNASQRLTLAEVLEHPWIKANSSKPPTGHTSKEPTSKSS
Nature of the test: Aurora-A Screening Assay. The format is biochemical. The method, then:
as §1, §2
The Aurora-A kinase assay was carried out using the CDK kinase assay procedure except that the enzyme was replaced with the full length protein encoding the murine Aurora-A (Accession #GB BC014711) expressed and purified from sf9 insect cells.

The target of test [7] is T4, rat VEGF-R2 kinase domain (Rattus norvegicus, UniProt O08775).
T4 construct: amino acids 786-1343 of the rat VEGF-R2 kinase domain; polyhistidine (N)
Nature of the test: VEGF-R2 Screening Assay. The format is biochemical.

The mark [8] stands for this setting: > means no observed 50% inhibition at the indicated test concentration, ~ means approximately 50% inhibition at that concentration, read-out: IC50 VEGF-R2.

T1 sequence (P04626 676-1255 limits assumed): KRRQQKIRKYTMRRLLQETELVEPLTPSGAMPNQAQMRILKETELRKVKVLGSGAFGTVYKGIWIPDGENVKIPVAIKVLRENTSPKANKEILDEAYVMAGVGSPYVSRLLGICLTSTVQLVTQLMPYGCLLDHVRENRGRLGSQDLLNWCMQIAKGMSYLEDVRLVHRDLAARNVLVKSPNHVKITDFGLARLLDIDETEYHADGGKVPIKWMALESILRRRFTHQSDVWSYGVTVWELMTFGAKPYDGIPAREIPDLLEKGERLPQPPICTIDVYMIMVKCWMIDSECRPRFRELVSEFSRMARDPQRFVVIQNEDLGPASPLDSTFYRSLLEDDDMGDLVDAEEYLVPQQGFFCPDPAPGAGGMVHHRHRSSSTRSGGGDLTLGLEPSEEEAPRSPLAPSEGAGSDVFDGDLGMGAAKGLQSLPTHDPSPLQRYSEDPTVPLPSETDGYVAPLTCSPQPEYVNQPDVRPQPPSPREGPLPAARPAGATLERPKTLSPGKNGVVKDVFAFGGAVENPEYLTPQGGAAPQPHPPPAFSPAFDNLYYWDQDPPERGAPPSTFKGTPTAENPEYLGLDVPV
T4 sequence (O08775 786-1343): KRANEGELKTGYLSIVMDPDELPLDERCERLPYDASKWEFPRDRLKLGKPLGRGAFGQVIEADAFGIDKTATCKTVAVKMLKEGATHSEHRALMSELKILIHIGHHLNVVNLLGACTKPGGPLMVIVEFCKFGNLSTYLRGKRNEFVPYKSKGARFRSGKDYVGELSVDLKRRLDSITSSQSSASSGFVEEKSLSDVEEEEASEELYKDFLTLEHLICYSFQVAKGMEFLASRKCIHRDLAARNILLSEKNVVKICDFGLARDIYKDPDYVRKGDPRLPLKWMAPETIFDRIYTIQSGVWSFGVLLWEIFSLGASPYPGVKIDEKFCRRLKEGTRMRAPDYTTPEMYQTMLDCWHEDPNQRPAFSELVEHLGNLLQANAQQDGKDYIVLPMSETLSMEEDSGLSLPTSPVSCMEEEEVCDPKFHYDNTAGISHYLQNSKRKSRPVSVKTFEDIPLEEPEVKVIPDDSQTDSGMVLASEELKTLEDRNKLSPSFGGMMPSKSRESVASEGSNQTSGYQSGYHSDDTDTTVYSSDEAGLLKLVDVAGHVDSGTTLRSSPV
T2 sequence (P06493 whole entry): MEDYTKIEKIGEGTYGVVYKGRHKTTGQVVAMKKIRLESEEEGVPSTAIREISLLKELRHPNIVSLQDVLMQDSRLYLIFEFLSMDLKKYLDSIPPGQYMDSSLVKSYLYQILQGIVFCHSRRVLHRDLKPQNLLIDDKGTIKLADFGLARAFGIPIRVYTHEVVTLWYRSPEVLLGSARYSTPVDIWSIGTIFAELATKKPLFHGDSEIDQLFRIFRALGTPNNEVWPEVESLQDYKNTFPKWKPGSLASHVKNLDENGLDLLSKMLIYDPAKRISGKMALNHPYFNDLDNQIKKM
T2 sequence (P14635 whole entry partner): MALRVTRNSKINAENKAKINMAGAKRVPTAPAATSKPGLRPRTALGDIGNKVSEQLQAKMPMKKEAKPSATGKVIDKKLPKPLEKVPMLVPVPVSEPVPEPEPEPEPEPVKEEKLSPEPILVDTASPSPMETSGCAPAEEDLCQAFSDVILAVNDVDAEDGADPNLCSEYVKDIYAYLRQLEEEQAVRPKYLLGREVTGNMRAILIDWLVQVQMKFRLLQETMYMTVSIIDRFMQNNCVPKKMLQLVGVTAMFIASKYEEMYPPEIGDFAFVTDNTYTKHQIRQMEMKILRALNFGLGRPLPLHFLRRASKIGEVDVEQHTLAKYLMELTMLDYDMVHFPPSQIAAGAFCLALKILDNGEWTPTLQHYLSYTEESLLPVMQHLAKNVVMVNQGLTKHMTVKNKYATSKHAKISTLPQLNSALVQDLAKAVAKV

In the case of `CO/N=C/c1c(N)ncnc1Oc1ccc2[nH]c(C)cc2c1` [Cpd 2, 4-amino-6-(2-methyl-1H-indol-5-yloxy)-pyrimidine-5-carbaldehyde O-methyl-oxime], the half-inhibitory concentration (IC50) in test [1] is 0.386 µM; in test [2] it was 0.389 µM; in test [3] it was 0.356 µM; in test [4] it was over 1 µM; in test [5], over 100 µM; in test [6] it was about 100 µM.
For `CCNC(=O)Oc1ccc(Oc2ncnc(N)c2C=NOC)cc1` [Cpd 102, ethyl-carbamic acid 4-[6-amino-5-(methoxyimino-methyl)-pyrimidin-4-yloxy]-phenyl ester], the IC50 is over 100 µM in test [4], over 100 µM in test [5] and over 10 µM in test [6].
Consider `CCNC(=O)Nc1ccc(Oc2ncnc(N)c2C=NOCCOC)cc1Cl` [Cpd 104, 1-(4-{6-amino-5-[(2-methoxy-ethoxyimino)-methyl]-pyrimidin-4-yloxy}-2-chloro-phenyl)-3-ethyl-urea], for which the 50% inhibitory concentration (IC50) is over 100 µM in test [4], over 100 µM in test [5], over 100 µM in test [6] and 0.041 µM in test [7] (setting [8]).
Turning to `CON=Cc1c(N)ncnc1Oc1ccc(OC(=O)Nc2cccc(Cl)c2)cc1` [Cpd 105, (3-chloro-phenyl)-carbamic acid 4-[6-amino-5-(methoxyimino-methyl)-pyrimidin-4-yloxy]-phenyl ester], the 50% inhibitory concentration (IC50) in test [4], in test [5], in test [6] and in test [7] (setting [8]) was over 100 µM throughout.
With `CON=Cc1c(N)ncnc1OCc1ccc2ccccc2c1` [Cpd 115, 4-amino-6-(2-naphthalenylmethoxy)-5-pyrimidinecarboxaldehyde O-methyloxime], the IC50 in test [7] (setting [8]) is over 10 µM.
Take `CCOC(=O)c1c(C)[nH]c2ccc(Oc3ncnc(N)c3/C=N/OC)cc12` [Cpd 107, 5-[{6-amino-5-[(E)-(methoxyimino)methyl]-4-pyrimidinyl}oxy]-2-methyl-1H-indole-3-carboxylic acid ethyl ester]: the 50% inhibitory concentration (IC50) in test [4], in test [5], in test [6] and in test [7] (setting [8]) was over 100 µM in each case.
`CON=Cc1c(N)ncnc1Oc1cc(OC)cc(OC)c1` [Cpd 106, 4-amino-6-(3,5-dimethoxyphenoxy)-5-pyrimidinecarboxaldehyde O-methyloxime]: the IC50 was over 10 µM in test [4], over 100 µM in test [5], over 100 µM in test [6] and over 10 µM in test [7] (setting [8]).
Turning to `CON=Cc1c(N)ncnc1OCc1cccc(F)c1` [Cpd 112, 4-amino-6-[(3-fluorophenyl)methoxy]-5-pyrimidinecarboxaldehyde O-methyloxime], in test [4], the concentration for half-maximal inhibition (IC50) is over 10 µM.
Take `CO/N=C/c1c(N)ncnc1Oc1ccc2[nH]cc(CCNC(C)=O)c2c1` [Cpd 113, N-[2-{5-[{6-amino-5-[(E)-(methoxyimino)methyl]-4-pyrimidinyl}oxy]-1H-indol-3-yl}ethyl]-acetamide]: the half-inhibitory concentration (IC50) in test [4], in test [5], in test [6] and in test [7] (setting [8]) was over 100 µM each time.
With `CNC(=O)Cc1ccc(Oc2ncnc(N)c2C=NOC)cc1` [Cpd 96, 2-{4-[6-amino-5-(methoxyimino-methyl)-pyrimidin-4-yloxy]-phenyl}-N-methyl-acetamide], the concentration for half-maximal inhibition (IC50) in test [4] was over 100 µM; in test [5], over 100 µM; in test [6], over 10 µM; in test [7] (IC50 VEGF-R2), 19.7 µM.
As for `COCCCON=Cc1c(N)ncnc1Oc1ccc2[nH]c(C)cc2c1F` [Cpd 33, 4-amino-6-(4-fluoro-2-methyl-1H-indol-5-yloxy)-pyrimidine-5-carbaldehyde O-(3-methoxy-propyl)-oxime], the IC50 in test [1] was 0.438 µM; in test [2], 0.346 µM; in test [3], 0.3 µM; in test [4], 3.99 µM; in test [5] it was over 100 µM; in test [6] it was over 10 µM.
With `CON=Cc1c(N)ncnc1Oc1ccc2c(c1)OCO2` [Cpd 108, 4-amino-6-(1,3-benzodioxol-5-yloxy)-5-pyrimidinecarboxaldehyde O-methyloxime], the concentration for half-maximal inhibition (IC50) was over 10 µM in test [4], over 100 µM in test [5], over 10 µM in test [6] and 3.96 µM in test [7] (setting [8]).
On to `C=CCON=Cc1c(N)ncnc1Oc1ccc2[nH]c(C)cc2c1F` [Cpd 31, 4-amino-6-(4-fluoro-2-methyl-1H-indol-5-yloxy)-pyrimidine-5-carbaldehyde O-allyl-oxime], for which the IC50 in test [1] was 0.04 µM; in test [2], 0.042 µM; in test [3], 0.021 µM; in test [4], over 100 µM; in test [5], over 100 µM; in test [6], over 100 µM.
Regarding `CCNC(=O)Nc1ccc(Oc2ncnc(N)c2C=NOCCN2CCOCC2)cc1Cl` [Cpd 103, 1-(4-{6-amino-5-[(2-morpholin-4-yl-ethoxyimino)-methyl]-pyrimidin-4-yloxy}-2-chloro-phenyl)-3-ethyl-urea], the IC50 in test [4] is over 100 µM; in test [5], over 100 µM; in test [6], over 100 µM; in test [7] (setting [8]), 0.093 µM.
With `CNC(=O)c1ccc(Oc2ncnc(N)c2C=NOC)cc1` [Cpd 98, 4-[6-amino-5-(methoxyimino-methyl)-pyrimidin-4-yloxy]-N-methyl-benzamide], the 50% inhibitory concentration (IC50) in test [4], in test [5] and in test [6] was over 100 µM each time.
In the case of `CON=Cc1c(N)ncnc1Oc1ccc(CC(=O)Nc2cccc(F)c2)cc1` [Cpd 100, 2-{4-[6-amino-5-(methoxyimino-methyl)-pyrimidin-4-yloxy]-phenyl}-N-(3-fluoro-phenyl)-acetamide], the results for the IC50 in test [4], in test [5] and in test [6] were 2.8 µM, over 100 µM and over 100 µM, respectively.
Consider `CON=Cc1c(N)ncnc1Oc1ccc(F)c(Cl)c1` [Cpd 109, 4-amino-6-(3-chloro-4-fluorophenoxy)-5-pyrimidinecarboxaldehyde O-methyloxime], for which the IC50 was over 1 µM in test [4], over 100 µM in test [5], over 100 µM in test [6] and over 100 µM in test [7] (setting [8]).
As to `CCNC(=O)Cc1ccc(Oc2ncnc(N)c2C=NOC)cc1` [Cpd 101, 2-{4-[6-amino-5-(methoxyimino-methyl)-pyrimidin-4-yloxy]-phenyl}-N-ethyl-acetamide], the results for the IC50 in test [4], in test [5] and in test [6] were over 100 µM, over 100 µM and over 10 µM, respectively.
As for `CNC(=O)n1c(C)cc2c(F)c(Oc3ncnc(N)c3C=NOC)ccc21` [Cpd 43, 5-[6-amino-5-(methoxyimino-methyl)-pyrimidin-4-yloxy]-4-fluoro-2-methyl-indole-1-carboxylic acid methylamide], the IC50 in test [4] is over 10 µM; in test [5], over 100 µM; in test [6], over 100 µM; in test [7] (setting [8]) it was about 1 µM.
Take `Cc1cc2c(F)c(Oc3ncnc(N)c3C=NOCCCN(C)C)ccc2[nH]1` [Cpd 17, 4-amino-6-(4-fluoro-2-methyl-1H-indol-5-yloxy)-pyrimidine-5-carbaldehyde O-(3-dimethylamino-propyl)-oxime]: the values for the concentration for half-maximal inhibition (IC50) in test [4], in test [5] and in test [6] were about 10 µM, over 100 µM and 33.8 µM, respectively.
